Values joined by “and” are separate entries in the source; they are usually repeats but may differ in a detail not shown here. Equal values may be shown once. Read-outs that look alike come from different tables or passages of the source.
Experiments:
[1] = test system: liver of obese Zucker rats; assay: Protein levels of lipid metabolism enzymes in the liver of obese Zucker rats; format: in vivo, rat; settings: change seen in mRNA (reduction)
Procedure: (§1) All the experiments were carried out in obese (fa/fa) and thin (Fa/?) male Zucker rats 8-9 weeks of age. The animals were placed in individual cages in a room with controlled temperature, humidity and lighting (light/darkness cycles of 12 hours), and with free access to food and water (standard laboratory diet).
(§2) OLHHA was dissolved in a vehicle containing 5% Tween 80 in saline and intraperitoneally (i.p.) administered at a dose of 5 mg/kg (volume of 1 ml/kg body weight) at the beginning of the light cycle (9:00 am-10:00 am) for 15 consecutive days. Two hours after the last injection, the animals were euthanized using sodium pentobarbital (50 mg/kg, i.p.) and blood and liver samples were extracted. The blood was centrifuged at 2100×g for 8 minutes at 4° C. and the obtained plasma was kept at −80° C. for subsequent analysis. The liver samples were also stored at −80° C.

[2] = Body weight gain and food intake in Zucker rats, chronic treatment; format: in vivo, rat; settings: 5 mg/kg i.p. daily 15 days
Procedure: as §1, §2
Animals received an injection (i.p.) of vehicle or OLHHA (5 mg/kg) daily for 15 consecutive days. For this experiment, 8 rats were used per group. The total body weight gain (g) and the accumulated food intake (g/kg of body weight) were evaluated daily.

liver of Zucker rats = assay: Gene expression (RT-qPCR) in the liver of Zucker rats; format: in vivo, rat
Procedure: as §1, §2
For isolating total RNA from the liver, the samples were homogenized in Trizol and then purified using Qiagen RNeasy Minelute Cleanup Kit (selectively eliminates most molecules smaller than 200 nucleotides), also including a DNAse treatment. The total mRNA concentration was quantified using a spectrophotometer. In all the cases, the A260/280 ratio was between 1.8 and 2. Complementary DNA synthesis was carried out by reverse transcription using the Transcriptor Reverse Transcriptase kit (Transcriptor RT, Roche Diagnostic). For real-time PCR (RT-qPCR), an ABI PRISM® 7300 Real-Time PCR System (Applied Biosystems) and TaqMan probes were used. The single-product amplification was confirmed by means of analyzing the melting curves. The values of each sample were normalized with respect to the beta-actin constitutive gene. The relative quantification was calculated by means of the ΔΔCt method and normalized to the control group. The Taqman probes were obtained from the rat genome database of Applied Biosystems (http://bioinfo.appliedbiosystems.com/genome-database/gene-expression.html): […]

Zucker rats = assay: Liver fat content and plasma triglyceride level of Zucker rats; format: in vivo, rat; settings: obese Zucker rats, 5 mg/kg once a day 15 days
Procedure: as §1, §2
The total liver fat content and the plasma triglyceride level were evaluated in thin and obese Zucker rats after a 15-day treatment with OLHHA (5 mg/kg, once a day). The samples for lipid analysis were obtained 2 hours after the last injection.
The Bligh & Dyer method (Bligh and Dyer, 1959) was followed for liver fat quantification. […] The fat content was expressed as % of tissue weight. […]

CYP2D6 = CYP2D6 (Homo sapiens, UniProt P10635); assay: biochemical
Chain of CYP2D6 (P10635 whole entry): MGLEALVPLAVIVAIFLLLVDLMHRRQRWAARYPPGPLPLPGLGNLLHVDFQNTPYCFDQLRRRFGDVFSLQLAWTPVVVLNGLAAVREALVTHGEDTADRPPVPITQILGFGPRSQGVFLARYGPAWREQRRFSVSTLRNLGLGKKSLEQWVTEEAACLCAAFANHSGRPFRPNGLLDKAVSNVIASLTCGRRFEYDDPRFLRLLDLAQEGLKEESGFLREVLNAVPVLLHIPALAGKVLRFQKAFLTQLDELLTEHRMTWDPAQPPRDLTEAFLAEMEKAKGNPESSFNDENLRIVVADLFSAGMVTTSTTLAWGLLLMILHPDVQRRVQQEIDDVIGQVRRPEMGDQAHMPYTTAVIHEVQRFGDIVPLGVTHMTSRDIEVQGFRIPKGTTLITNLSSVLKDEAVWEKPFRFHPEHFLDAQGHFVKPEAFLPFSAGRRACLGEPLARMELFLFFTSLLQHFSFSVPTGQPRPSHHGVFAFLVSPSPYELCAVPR

obese rats [3] = assay: Circulating pro-inflammatory cytokine level in obese rats (ELISA); format: in vivo, rat; settings: 5 mg/kg i.p. 15 days
Procedure: as §1, §2
Circulating IL-6 and TNF-α levels were measured by means of ELISAs using commercial kits (Abcam).

obese rats [4] = assay: Hepatic serum transaminase level in obese rats; format: in vivo, rat; settings: 5 mg/kg i.p. 15 days
Procedure: as §1, §2
Commercial kits were used for determining hepatic serum transaminases and they were analyzed in a Hitachi 737 automatic biochemistry analyzer.

[5] = test system: liver of obese Zucker rats; assay: Histological evaluation of fatty liver and Caspase-3 in obese Zucker rats; format: in vivo, rat
Procedure: as §1, §2
The histological analysis of the livers of obese Zucker rats treated with the vehicle or with OLHHA confirmed the biochemistry total fat quantification results.

hERG channel = biological target: T1, hERG channel (Homo sapiens, UniProt Q12809); assay: hERG channel functional assay (FluxOR thallium fluorescence); format: cell-based; settings: HEK-293 cells expressing hERG
T1 construct: expressed in transfected cells; host or cells: HEK293
T1 sequence (Q12809 whole entry): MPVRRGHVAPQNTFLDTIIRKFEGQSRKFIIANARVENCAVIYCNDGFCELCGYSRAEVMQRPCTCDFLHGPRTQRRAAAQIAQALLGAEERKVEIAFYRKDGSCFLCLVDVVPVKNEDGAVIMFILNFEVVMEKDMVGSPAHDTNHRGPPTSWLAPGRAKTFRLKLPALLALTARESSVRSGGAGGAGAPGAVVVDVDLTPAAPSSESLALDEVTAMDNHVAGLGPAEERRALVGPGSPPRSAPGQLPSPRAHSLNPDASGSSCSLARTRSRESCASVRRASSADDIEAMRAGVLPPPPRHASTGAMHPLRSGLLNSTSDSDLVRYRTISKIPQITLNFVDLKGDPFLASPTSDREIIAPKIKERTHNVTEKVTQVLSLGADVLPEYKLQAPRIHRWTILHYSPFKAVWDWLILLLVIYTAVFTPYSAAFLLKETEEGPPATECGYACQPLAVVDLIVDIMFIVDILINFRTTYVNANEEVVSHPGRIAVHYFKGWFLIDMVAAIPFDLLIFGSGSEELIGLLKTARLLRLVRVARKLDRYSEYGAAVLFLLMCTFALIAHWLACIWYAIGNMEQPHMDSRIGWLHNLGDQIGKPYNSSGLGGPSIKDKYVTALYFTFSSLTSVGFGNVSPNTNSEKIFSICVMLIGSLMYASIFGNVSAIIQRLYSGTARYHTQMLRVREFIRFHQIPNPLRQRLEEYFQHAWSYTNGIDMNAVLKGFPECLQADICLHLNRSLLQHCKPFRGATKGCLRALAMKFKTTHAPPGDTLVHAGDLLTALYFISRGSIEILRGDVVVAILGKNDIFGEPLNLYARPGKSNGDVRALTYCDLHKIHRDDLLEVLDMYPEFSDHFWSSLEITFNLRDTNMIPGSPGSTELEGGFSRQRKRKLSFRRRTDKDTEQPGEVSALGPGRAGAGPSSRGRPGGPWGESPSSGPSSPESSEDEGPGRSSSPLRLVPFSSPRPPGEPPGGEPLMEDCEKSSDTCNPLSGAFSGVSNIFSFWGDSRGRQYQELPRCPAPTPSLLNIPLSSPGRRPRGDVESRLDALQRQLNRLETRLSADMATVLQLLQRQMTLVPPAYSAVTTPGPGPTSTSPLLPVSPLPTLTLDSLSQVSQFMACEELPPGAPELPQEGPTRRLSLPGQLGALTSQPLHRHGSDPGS
Procedure: The hERG channel assay was used to identify if OLHHA may cause cardiotoxicity (FIG. 8). […] FluxOR™ is protected by AM groups which prevent fluorescence outside the cell. When it enters the cell, esterases in the cytosol remove the AM groups, and FluxOR™ will be converted to its active form in which it is capable of binding to thallium, which moves into the cytoplasm through the hERG channel, resulting in the emission of fluorescence. HEK293 cells expressing the hERG channel were seeded in poly-D-lysine-treated, black 96-well plates and incubated for 24 hours. […] Next, 20 μl of FluxOR™ dissolved in the assay buffer were added. The fluorochrome was incubated with the cells for 1 hour at room temperature. Next, the plates were washed with 50 μl of assay buffer and the compound OLHHA at a dilution of 1:200 (2 μl of OLHHA/400 μl of assay buffer) was added using an EP3 station. […] The plates were incubated with OLHHA for 30 minutes and then read in a […], which added 5 μl of stimulation buffer (Tl2SO4+K2SO4), and read the fluorescence for 120 s, which allowed analyzing channel kinetics.

CYP2C9 = CYP2C9 (Homo sapiens, UniProt P11712); assay: P450 cytochrome inhibition fluorometric assay CYP2C9; format: in vitro ADME
Chain of CYP2C9 (P11712 whole entry): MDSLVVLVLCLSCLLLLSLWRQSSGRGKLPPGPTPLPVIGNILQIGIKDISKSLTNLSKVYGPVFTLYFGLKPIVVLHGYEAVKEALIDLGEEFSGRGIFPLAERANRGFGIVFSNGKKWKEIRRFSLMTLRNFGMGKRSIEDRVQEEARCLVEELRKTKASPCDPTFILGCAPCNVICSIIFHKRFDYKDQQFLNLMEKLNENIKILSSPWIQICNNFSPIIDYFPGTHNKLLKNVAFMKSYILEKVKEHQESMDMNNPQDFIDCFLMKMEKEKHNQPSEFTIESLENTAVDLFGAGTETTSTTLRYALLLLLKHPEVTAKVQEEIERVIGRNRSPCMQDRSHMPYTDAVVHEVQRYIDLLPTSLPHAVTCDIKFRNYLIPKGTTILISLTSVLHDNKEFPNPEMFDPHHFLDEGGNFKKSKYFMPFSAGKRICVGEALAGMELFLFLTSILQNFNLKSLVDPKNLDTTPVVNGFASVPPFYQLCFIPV
Procedure: However, most human CYPs tolerate acetonitrile. […] OLHHA was tested in triplicate.

obese rats [6] = assay: Kidney function-related plasma protein level in obese rats; format: in vivo, rat; settings: 5 mg/kg i.p. 15 days
Procedure: as §1, §2
Commercial kits were used for determining serum creatinine and urea and they were analyzed in a Hitachi 737 automatic biochemistry analyzer.

CYP3A4 = CYP3A4 (Homo sapiens, UniProt P08684); assay: biochemical
Chain of CYP3A4 (P08684 whole entry): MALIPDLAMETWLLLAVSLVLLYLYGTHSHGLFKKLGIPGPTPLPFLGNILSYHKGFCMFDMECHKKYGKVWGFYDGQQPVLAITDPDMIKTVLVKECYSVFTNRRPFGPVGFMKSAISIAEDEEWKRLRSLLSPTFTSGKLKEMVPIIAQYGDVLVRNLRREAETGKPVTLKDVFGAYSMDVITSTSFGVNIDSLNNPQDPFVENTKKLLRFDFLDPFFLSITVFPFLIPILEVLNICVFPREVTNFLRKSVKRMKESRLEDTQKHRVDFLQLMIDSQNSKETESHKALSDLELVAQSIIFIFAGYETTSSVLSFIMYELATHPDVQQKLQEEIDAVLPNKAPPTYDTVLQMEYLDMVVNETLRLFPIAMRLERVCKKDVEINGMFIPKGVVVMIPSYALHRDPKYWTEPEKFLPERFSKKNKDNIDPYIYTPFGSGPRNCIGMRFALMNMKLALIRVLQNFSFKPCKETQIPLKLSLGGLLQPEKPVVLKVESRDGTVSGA

[7] = obese Zucker rats liver, immunohistochemistry
[8] = obese Zucker rats, chronic treatment, vs vehicle

CCCCCCCC/C=C\CCCCCCCC(=O)NC(C)Cc1ccc(O)c(O)c1 (stereo not shown) [OLHHA, N-(1-(3,4-dihydroxyphenyl)propan-2-yl)oleamide]
FAS protein expression level [1]: confirmed at the protein expression level
HMG-CoAR protein expression level [1]: confirmed at the protein expression level
accumulated food intake ([2]; obese Zucker rats): did not cause any effect
body weight gain ([2]; obese Zucker rats): did not cause any effect
accumulated food intake ([2]; thin Zucker rats, starting on the fifth day, vs vehicle): significant reduction
body weight gain ([2]; thin Zucker rats, vs vehicle): significant inhibition
ACOX mRNA expression (liver of Zucker rats; 5 mg/kg i.p. 15 days): significant increase
FAS mRNA expression (fatty acid biosynthesis) (liver of Zucker rats; 5 mg/kg i.p. 15 days): significant reduction
HMG-CoAR mRNA expression (cholesterol biosynthesis) (liver of Zucker rats; 5 mg/kg i.p. 15 days): significant reduction
INSIG2 mRNA expression (liver of Zucker rats; 5 mg/kg i.p. 15 days): significantly increased
NAPE-PLD mRNA expression (liver of Zucker rats; 5 mg/kg i.p. 15 days): significantly reduced
L-FABP mRNA level (liver of Zucker rats; chronic treatment): increased
circulating triglycerides (Zucker rats; five-fold increase in obese vs thin): prevented these increases
total liver fat content (Zucker rats; three-fold increase in obese vs thin): prevented these increases
IC50 (CYP2D6): 23.3 µM and > 10 µM
plasma IL6 levels (obese rats [3]): no changes were detected
TNF-α level (obese rats [3]; did not reach a degree of significance): drop
aspartate aminotransferase (AST) level (obese rats [4]; not statistically significant): reduction
alanine aminotransferase (ALT) level (obese rats [4]; statistically significant (p<0.05)): reduction
gamma-glutamyl transpeptidase (GGt) (obese rats [4]; vs vehicle): no effect was observed
expression of activated Caspase-3 [5, 7]: reduced the expression
expression of total Caspase-3 [5, 7]: reduced the expression
apoptotic activity in liver [5, 8]: reduction in apoptotic activity
liver fat content (hematoxylin-eosin and oil red staining) [5, 8]: reduction in liver fat content
IC50 (hERG channel; maximum concentration 150 μM): > 150 µM
IC50 (CYP2C9; degree of inhibition, read-out: CYP2C9 Inhibitor category): 1 to 10 µM
IC50 (CYP2C9; fluorometric assay, maximum dose 105 μM, read-out: CYP2C9 IC50): 6.8 µM
creatinine levels (obese rats [6]): did not affect
urea levels (obese rats [6]; vs vehicle, p<0.001): significant reduction
IC50 (CYP3A4): 14.8 µM and > 10 µM

CC(C)COCC(CN(Cc1ccccc1)c1ccccc1)N1CCCC1 (stereo not shown) [bepridil, reference compound]
IC50 at 30 min (hERG channel; human, HEK293 cells expressing the hERG channel, pH 7.4, probe FluxOR fluorescent dye / thallium ions, standard control inhibitors, unit M): 2.2 µM
